Marks after values point to notes of the source that are not given here.
Tests used:
Type in all cases: in vivo, rat
[1] = test system: frontal cortex and hippocampus; test: Brain histopathology (H&E), AlCl3 Alzheimer's model; conditions: 5 mg/kg, 10 mg/kg and 20 mg/kg
Description: The brain histopathology was done for all the experimental groups. The brain tissue was fixed in 10% buffered neutral formalin solution. The tissue was embedded in paraffin, sectioned at […] stained with hematoxylin and eosin (H&E). The sections were examined under light microscope to study the architecture of the brain tissue, and then photomicrographs were taken (Fischer A H, Jacobson K A, Rose J, Zeller R. Hematoxylin and eosin staining of tissue and cell sections. CSH Protoc. 2008:1;pdb.prot4986. doi: 10.1101/pdb.prot4986).

[2] = test system: IL-1β; test: Inflammatory marker IL-1β (ELISA), AlCl3 Alzheimer's model; conditions: for IL-1β: p.o. + AlCl3 (100 mg/kg, i.p.), n = 6
Description: The inflammatory markers Fibrinogen, IL-1β were estimated using ELISA kit (Krishgen Biosystems, India).

[3] = test system: Apolipoprotein E; test: Apolipoprotein E level in plasma (ELISA), AlCl3 Alzheimer's model; conditions: for Apolipoprotein E: p.o. + AlCl3 (100 mg/kg, i.p.), plasma, Mean ± SEM, n = 6
Description: The levels of Tau, β-amyloid (1-42) and Apolipoprotein E were estimated. using ELISA kit (Krishgen Biosystems, India). All the protein biomarkers of AD were elevated in the AD control group.

[4] = test system: Aquaporin 9 (AQP9); test: AQP9 expression, reserpine Parkinson's model; conditions: 5, 10 and 20 mg/kg, FIG. 9
Description: The induction of Parkinson's disease and measurement of other parameters were done as per the reported protocol (Santos et al., Cognitive, motor and tyrosine hydroxylase temporal impairment in a model of parkinsonism induced by reserpine. Behav Brain Res. 2013; 253:68-77 and Shishehbore et al. A novel kinetic spectrophotometric method for the determination of dopamine in biological and pharmaceutical samples. J Chem. 2013; 2013:1-6). Induction of Parkinson's disease was done by administering Resperine, which inhibits the monoamine vesicular transporters, thus decreasing the levels of monoamine neurotransmitters in the brain. Following pretreatment for 14 days with Gingerenone A, the rat groups received subcutaneous injections of reserpine (4 mg/kg) for the final five days of the treatment regimen. Resperine (5 mg) was dissolved in 1 ml of 1% acetic acid and then diluted tenfold with distilled water to achieve a final concentration of 500 μg/ml. The normal control group received saline with 1% acetic acid for 14 days, administered from day 10 to day 14. Thirty minutes following the administration of reserpine on the 14th day, behavioural assessments were conducted using the Open Field test, Y Maze, and Catalepsy tests to evaluate changes. Rats administered with Carbidopa, a known drug for the management of Parkinson's disease was also used for comparison. […]

SMILES: COc1cc(CC/C=C/C(=O)CCc2ccc(O)c(OC)c2)ccc1O [Gingerenone A]
- histopathology of frontal cortex ([1]; FIG. 5A, 6A, 7A): intact pyramidal cells having round to oval vesicular nucleus with abundant cytoplasm, neuroglial cells, granular cells and intact blood vessels with degenerated cells [mild to moderate] with dystrophic changes having shrunken and hyperchromatic nuclei and without inflammation
- histopathology of hippocampus (CA1, CA2, CA3) ([1]; FIG. 5B-D, 6B-D, 7B-D): intact architecture consisting of Cornu Ammonis [CA] and dentate gyrus with compact layers of pyramidal cells having vesicular nuclei and moderate cytoplasm without shrinkage and necrosis
- IL-1β ([2]; 5 mg/kg): 97.92 pg/mL
- IL-1β ([2]; 10 mg/kg): 84.90* pg/ml
- IL-1β ([2]; 20 mg/kg): 80.65** pg/ml
- IL-1β (in words) ([2]; AlCl3 model, Table 9): significantly reduced
- Apolipoprotein E ([3]; 5 mg/kg): 7.47 ± 0.054 ng/mL
- Apolipoprotein E ([3]; 10 mg/kg): 7.08 ± 0.076 ng/mL
- Apolipoprotein E ([3]; 20 mg/kg): 6.84 ± 0.034 ng/mL
- levels of Apolipoprotein E (in words) ([3]; AlCl3 model, Table 8): significantly reduced
- AQP9 expression (in words) [4]: inhibited AQP9 expression
